Test results reported in US9402849B2, “Composition for moderating alcohol metabolism and for reducing the risk of alcohol induced diseases” (Tima Foundation, priority 2005, dated 2016).
Several values for one entry are separate records, joined by “and”; a condition that tells them apart may be missing. Equal values may be shown once.

Tests used:
[1] = tested on: RPMI4788 cells; assay: Alcohol enhanced pulmonary metastasis of RPMI4788 cells in nude mice (nodules on lung surface); type: in vivo
Procedure: Ingredients of Supplement except Coenzyme Q10 were purchased from Sigma Aldrich Japan (Tokyo, Japan). Ten gram of dextrose, 1.0 gram of Vitamin C, 1.5 gram of L-glutamine, 500 mg of cysteine, 40 mg of riboflavin, 100 mg of succinic acid, 100 mg of fumaric acid, and 10 mg of niacin were dissolved in 100 ml of distilled water (Supplement Solution). One hundred mg of Coenzyme Q10 (Jarrow Formulas, Los Angels, Calif., USA) was dissolved in 14 ml of sesame oil.
Male, 6-week-old nude mice of BALB/cA-jcl-nu/nu class were purchased (Clea Japan Inc., Shizuoka, Japan) and allowed to acclimate for one week prior to the study. During the experiment the mice were maintained at a temperature of 23° C., 50% humidity and a specific-pathogen-free (SPF) condition.
RPM14788 cells derived from human colorectal cancer generate pulmonary metastasis in nude mouse (Moore G E & Koike A (1964), Cancer January, 17: 11-20; Kondo H. et al. (1987), Jpn J Cancer Res (Gann) 78, 12: 1400-1408). The cell line was subcultured in tissue culture flasks with culture medium of RPMI1640 solution (Nikken Biomedical Laboratory, Kyoto, Japan) supplemented with 10% Fetal Bovine Serum. (FBS) (Hycione Laboratories Inc., Logan, Utah) at 37° C., in an atmosphere of 100% humidity, 5% CO2 and 95% air. Following isolation of the cultured cells by 0.02% EDTA, a cell suspension was prepared using PBS of 0.01M; trypan blue staining confirmed cell viability over 98%.
To produce lung metastases, nude mice were injected cell suspension of 5×10^4/0.1 ml into tail vein. Twenty-eight days after the injection, all metastatic nodules on the lung surface were counted. The lung was fixed in 10% neutral formaldehyde and embedded in paraffin. Sections were stained with Hematoxylin-Eosin and examined histologically.
For testing the supplement, 320 μl of supplement solution and 50 μl of Co-Q10 dissolved sesame oil per mouse were administrated to the stomach by oral metal tube. For assaying the effects of Supplement+EtOH, one hour after the supplement administration, 7.0 ml/kg of ethanol were injected into the peritoneal cavity. Then 1 hour after the ethanol injection, 5×10^4/100 μl of RPM14788 cells were injected into the tail vein. The nude mice were sacrificed 28 days after the cell injection and the metastatic nodules on the lung surface were counted.

[2] = tested on: YAC-1 cells; assay: NK cytotoxic activity of nude mouse splenocytes, short-term 51Cr-release assay; type: in vivo; conditions: for NK activity, % Control: EtOH versus control nude mice
Procedure: A short-term ^51Cr-release assay was used to determine the natural killer (NK) cytotoxic activity. Mice were divided in following 3 groups; control, ethanol administration, and Supplement and ethanol administration. Twenty, four hours after the ethanol administration, splenocytes of the nude mouse were separated as single cell suspension. Target YAC-1 cells (1×10^7) were labeled by incubation with 200 μCi of ^51Cr for 2 hours at 37C. After being washed and then incubated for 2 hours at 37° C., the cells were supplemented in RPMI1640 medium. 20 μl of the labeled target cells and 100 μl of effector cells were mixed into a 96-well microliter plate (Sumitomo Bakelite Co., Ltd., Tokyo, Japan) at various effector/target cell ratios. After 4 hours of incubation, the plates were centrifuged and the radioactivity of the supernatant was measured by a gamma-counter. The percent of cytotoxicity was calculated as (experimental group release−spontaneous release/total release−spontaneous release). Statistical analysis of the results was conducted by t^2 test, and […] was defined as the level of significance.

CCO [ETOH, ethanol]
Number of Metastatic nodules on the lung surface, Average ([1]; ETOH + 4788, 16 mice): 42.25
Number of Metastatic nodules on the lung surface, Total ([1]; ETOH + 4788, 16 mice): 676
Number of Metastatic nodules on the lung surface ([1]; ETOH + 4788, single mouse, ethanol 7.0 ml/kg i.p. 1 h before cells, 28 days): 75 and 58 and 69 and 62 and 18 and 19 (2×) and 21 (2×) and 24 and 20 (2×) and 48 and 70 and 64 and 68
Total metastatic nodules minus 4788 ([1]; ETOH + 4788, total minus control total): 251
Enhancement of metastatic potential of 4788 cell line ([1]; Ethanol + 4788 versus control): approximately 60%
NK activity ([2]; EtOH): 11.20%
NK activity, % Control ([2]; listed as EtOH): 45.5%
NK activity, % Control ([2]; listed as Ethanol): 45.5%
Average cont (51Cr release) ([2]; EtOH, splenocytes 24 h after ethanol): 568.6
